Viability data for 33 molecules are collected here from ChEMBL document CHEMBL5608109, “Hepatotoxicity screening of Donated Chemical Probes” (2024).

The structures appear in SMILES notation. Counter-ions that a name gives are not always drawn. Where a SMILES comes first, the peptide text is derived from it. [ ]: non-standard residue; d: D form. Arg(Me) = CNC(=N)NCCC[C@H](N)C(=O)O; d4Pal = N[C@H](Cc1ccncc1)C(=O)O; azaGly = NNC(=O)O

For the assay, the system named is Hepatocyte spheroids. Nature of the assay: This assay model using primary human hepatocyte (PHH) spheroids, which are cultured in Williams E medium. After spheroid formation, cells are exposed to compounds in an FBS-free culture medium. […] Imaging is performed on an Opera Phenix High-Content Screening System, allowing quantification of proliferation as a readout for evaluating the effects of chemical probes on hepatocyte regeneration. The format is functional. To be noted: read-out: Cell Viability; for viability at 1 µM: Concentration 1 uM; for viability at 10 µM: Concentration 10 uM; for viability at 0.1 µM: Concentration 0.1 uM; for viability at 20 µM: Concentration 20 uM.

Turning to `CC(=O)N1CCC(c2ccc(C(=O)NC(=N)N)cc2C(F)(F)F)CC1` [BI 9627], the viability at 1 µM was 78.4% (non-toxic) and the viability at 10 µM was 106% (non-toxic).

In the case of `Cc1nc(N2CC[C@H](O)C2)ncc1-c1cc(C(F)(F)F)cc2[nH]ncc12`, the viability at 1 µM was 116% (non-toxic) and the viability at 10 µM is listed as 107% (non-toxic).

With `COCCOc1nc(-c2ccc(Cl)nc2)nc2c1CN(C(=O)c1ncn3ccccc13)CC2` [THPP-1], the viability at 0.1 µM is listed as 118% (non-toxic) and the viability at 1 µM was 116% (non-toxic).

With `CCOCCn1cc(C(=O)Nc2ccc(-n3nc(-c4cccnc4)cc3C(F)(F)F)cn2)ccc1=O` [BI 1935], the viability at 1 µM is recorded as 100% (non-toxic) and the viability at 10 µM is reported as 34.7% (toxic).

Consider `CO[C@H]1CC[C@H](CNc2ccc(S(=O)(=O)NC(=O)c3ccc(N4CCN(CC5=C(c6ccc(Cl)cc6)CC(C)(C)CC5)CC4)cc3Oc3cnc4[nH]ccc4c3)cc2[N+](=O)[O-])CC1` [A-1211212], for which the viability at 1 µM was 130% (non-toxic) and the viability at 10 µM is recorded as 126% (non-toxic).

In the case of `CCC(F)(F)c1cc(N2CCC(S(C)(=O)=O)CC2)nc2sc(C(N)=O)c(N)c12` [BI-605906], the viability at 1 µM was 103% (non-toxic) and the viability at 10 µM is recorded as 134% (non-toxic).

With `Cc1c[nH]c2nccc(Oc3c(F)cc(Nc4cc(Cl)nc(N)n4)cc3F)c12` [BAY-549], the viability at 0.1 µM was 79.9% (non-toxic) and the viability at 1 µM is 83.7% (non-toxic).

As for `COc1cccc(CNC(=O)c2nc3scc(COCc4ccc(C(=O)O)cc4)c3c(=O)[nH]2)c1` [T-26c], the viability at 0.1 µM is 125% (non-toxic) and the viability at 1 µM is 99.4% (non-toxic).

Consider `CN([C@@H]1CCc2c(CC(=O)O)c3ccccc3n2C1)S(=O)(=O)c1ccc(F)cc1` [MK-7246], for which the viability at 1 µM is given as 107% (non-toxic) and the viability at 10 µM is recorded as 111% (non-toxic).

For `CN1CCN(C(=O)C(C)(C)c2ccc(C(=O)Nc3cn4cc(-c5ccncc5)ccc4n3)cc2)CC1` [T3-CLK], the viability at 1 µM is 109% (non-toxic) and the viability at 10 µM is recorded as 1.01% (toxic).

For `C[C@@H](NC(=O)Nc1cc2[nH]ncc2c(CO)n1)c1ccccc1` [ERKi], the viability at 1 µM is on record as 75% (non-toxic) and the viability at 10 µM is 75.2% (non-toxic).

`NS(=O)(=O)c1cc(NC(=O)Cc2ccccc2)ccc1Oc1cccc(Cl)c1` [BAY-1797]: the viability at 1 µM is 111% (non-toxic) and the viability at 10 µM was 19.3% (toxic).

On to `O=C(NNS(=O)(=O)c1ccccc1F)c1cc(F)cc(-c2ccccn2)c1` [WM-1119], for which the viability at 1 µM was 107% (non-toxic) and the viability at 10 µM was 75.2% (non-toxic).

For the molecule `CN1C(=O)[C@@H](N2CCc3c(nn(Cc4ccccc4)c3Br)C2=O)COc2ccccc21` [TP-030-2], the viability at 0.1 µM is listed as 69.5% (toxic) and the viability at 1 µM is recorded as 56.7% (toxic).

As to `Nc1nc(NCc2ccccc2)nc(-c2ccccc2CO)n1` [Ogerin], the viability at 1 µM is 94.3% (non-toxic) and the viability at 10 µM was 115% (non-toxic).

In the case of `CC(=O)Nc1ncc(CN2CCC[C@H](Cc3cc(C)nc(C)c3)C2)s1` [JNJ-65355394], the viability at 1 µM is reported as 149% (non-toxic) and the viability at 10 µM was 142% (non-toxic).

`c1ccc(N2CCN(Cc3nc4ccccc4[nH]3)CC2)nc1`: the viability at 1 µM is 117% (non-toxic) and the viability at 10 µM is 110% (non-toxic).

As to `CNC(=N)NCCC[C@H](NC(=O)[C@H](CC(C)C)NC(=O)NNC(=O)[C@H](Cc1ccccc1)NC(=O)[C@H](CO)NC(=O)[C@H](CC(N)=O)NC(=O)[C@@H](Cc1ccncc1)NC(=O)[C@H](N)Cc1ccc(O)cc1)C(=O)N[C@@H](Cc1ccccc1)C(N)=O` [KISS1-305] (H-[dY][d4Pal]NSF[azaGly]L[Arg(Me)]F-NH2), the viability at 0.1 µM is on record as 107% (non-toxic) and the viability at 1 µM is recorded as 98.4% (non-toxic).

In the case of `CS(=O)(=O)c1cc(C2(NC(=O)c3cncc4c3cnn4-c3ccc(F)cc3)CC2)ccn1` [BI 639667], the viability at 20 µM was 59.6% (toxic). Further, the viability at 2 µM (Concentration 2 uM) was 60.2% (toxic).

For the molecule `COc1ccc2c(O[C@@H]3C[C@H]4C(=O)N[C@]5(C(=O)O)CC5/C=C\CCCCC[C@H](NC(=O)OC5CCCC5)C(=O)N4C3)cc(-c3csc(NC(=O)C(C)C)n3)nc2c1C` (stereo not given in full) [BI 1230], the viability at 1 µM is on record as 106% (non-toxic) and the viability at 10 µM is on record as 0.711% (toxic).

For the molecule `O=c1nc(-c2ccccn2)sc2ccccc12` [BTZO-1], the viability at 1 µM is 99.7% (non-toxic) and the viability at 10 µM is reported as 73.5% (non-toxic).

With `Cc1cc(-n2nc(Cc3cc(F)cc(C(F)(F)F)c3)nc2C)ccc1C(N)=O` [TP-024], the viability at 1 µM was 111% (non-toxic) and the viability at 10 µM is 92% (non-toxic).

Take `CNCc1ccccc1-c1csc([C@@H](C)Nc2nc(C)nc3cc(OC)c(OC)cc23)c1` [BAY-293]: the viability at 1 µM is given as 120% (non-toxic) and the viability at 10 µM is 0.873% (toxic).

Regarding `O=C(NCCN1CCOCC1)c1ccc2c(c1)C(=O)c1ccc(Nc3ccc(F)c(NC(=O)c4ccccc4)c3)cc1CC2` [FS-694], the viability at 1 µM is reported as 74.8% (non-toxic) and the viability at 10 µM is reported as 84.2% (non-toxic).

With `CCc1ccccc1C(=O)Nc1n[nH]c2c(C)c(F)c(C3C(C#N)=C(C)N(C)C(C)=C3C#N)cc12` [BAY-3827], the viability at 1 µM was 110% (non-toxic) and the viability at 10 µM was 84.2% (non-toxic).

On to `N#CC1(c2ccccn2)CCN(Cc2cc(C(=O)O)c(=O)n3ccccc23)CC1` [MSD-M1PAM], for which the viability at 1 µM is reported as 112% (non-toxic) and the viability at 10 µM is on record as 87.1% (non-toxic).

For the molecule `CN(C)CCCN1c2ccccc2Sc2ccc(Cl)cc21` [CHLORPROMAZINE HYDROCHLORIDE], the viability at 20 µM is 0.683% (toxic).

Take `CCCOc1ccc([C@H]2[C@H](C(=O)O)[C@@H](c3ccc4c(c3)OCO4)CN2CC(=O)Nc2c(CC)cccc2CC)cc1` [A-192621]: the viability at 0.1 µM is listed as 104% (non-toxic) and the viability at 1 µM is given as 110% (non-toxic).

Take `COc1cc(-c2cn([C@H]3CCc4c(F)cccc4N(CC(F)(F)F)C3=O)nn2)ccc1-n1cnc(C)c1`: the viability at 1 µM was 115% (non-toxic) and the viability at 10 µM is on record as 126% (non-toxic).

Consider `CC(C)(O)[C@H](F)CN1Cc2cc(NC(=O)c3cnn4cccnc34)c(N3CCOCC3)cc2C1=O`, for which the viability at 1 µM was 118% (non-toxic) and the viability at 10 µM is given as 90.2% (non-toxic).

On to `CNC(=O)c1cc(C(=O)N[C@H]2[C@@H]3COC[C@@H]32)cc2c1O[C@H](CF)[C@H]2c1ccccc1` [GSK973], for which the viability at 1 µM was 103% (non-toxic) and the viability at 10 µM is on record as 88.7% (non-toxic).

On to `O=C(Nc1cnc(Oc2ccc(F)cc2)nc1)N1CCc2ncccc2[C@@H]1c1ccc(F)cc1` [BAY-899], for which the viability at 1 µM is listed as 92.3% (non-toxic) and the viability at 10 µM is reported as 106% (non-toxic).

For `Cc1cc2c(-c3ccco3)cnc(N[C@@H]3CCN(C)C[C@H]3C(=O)NC3CCCCC3)c2[nH]c1=O` [GSK789], the viability at 1 µM was 52.2% (toxic) and the viability at 10 µM is reported as 27.6% (toxic).

In general, viability refers to a read-out of living cells in per cent, often relative to untreated cells.
